Measured values reported in ChEMBL document CHEMBL1142784, “Discovery and in vitro evaluation of potent kinase inhibitors: Pyrido[1',2':1,5]pyrazolo[3,4-d]pyrimidines” (Bioorg Med Chem Lett, 2005).

Legend:
[1] = biological target: Receptor tyrosine-protein kinase erbB-2 (Homo sapiens, UniProt P04626); assay: Inhibitory concentration against ErbB-2 protein tyrosine kinase by using [gamma-33P]-ATP as radioligand in pH 7.5
[2] = biological target: Epidermal growth factor receptor (Homo sapiens, UniProt P00533); assay: Inhibitory concentration against EGFR by using [gamma-33P]-ATP as radioligand in pH 7.5
[3] = biological target: Glycogen synthase kinase-3 (Homo sapiens, UniProt P49840+P49841); assay: Inhibitory concentration against GSK3-beta by using [gamma-33P]-ATP as radioligand expressed in Escherichia coli in pH 7.2 for 19 min at room temperature
[4] = biological target: Vascular endothelial growth factor receptor (Homo sapiens, UniProt P17948+P35916+P35968); assay: Inhibitory concentration against VEGFR(10 nM) by using homogeneous time-resolved fluorescence detection in pH 7.5

Epidermal growth factor receptor, sequence (P00533 whole entry): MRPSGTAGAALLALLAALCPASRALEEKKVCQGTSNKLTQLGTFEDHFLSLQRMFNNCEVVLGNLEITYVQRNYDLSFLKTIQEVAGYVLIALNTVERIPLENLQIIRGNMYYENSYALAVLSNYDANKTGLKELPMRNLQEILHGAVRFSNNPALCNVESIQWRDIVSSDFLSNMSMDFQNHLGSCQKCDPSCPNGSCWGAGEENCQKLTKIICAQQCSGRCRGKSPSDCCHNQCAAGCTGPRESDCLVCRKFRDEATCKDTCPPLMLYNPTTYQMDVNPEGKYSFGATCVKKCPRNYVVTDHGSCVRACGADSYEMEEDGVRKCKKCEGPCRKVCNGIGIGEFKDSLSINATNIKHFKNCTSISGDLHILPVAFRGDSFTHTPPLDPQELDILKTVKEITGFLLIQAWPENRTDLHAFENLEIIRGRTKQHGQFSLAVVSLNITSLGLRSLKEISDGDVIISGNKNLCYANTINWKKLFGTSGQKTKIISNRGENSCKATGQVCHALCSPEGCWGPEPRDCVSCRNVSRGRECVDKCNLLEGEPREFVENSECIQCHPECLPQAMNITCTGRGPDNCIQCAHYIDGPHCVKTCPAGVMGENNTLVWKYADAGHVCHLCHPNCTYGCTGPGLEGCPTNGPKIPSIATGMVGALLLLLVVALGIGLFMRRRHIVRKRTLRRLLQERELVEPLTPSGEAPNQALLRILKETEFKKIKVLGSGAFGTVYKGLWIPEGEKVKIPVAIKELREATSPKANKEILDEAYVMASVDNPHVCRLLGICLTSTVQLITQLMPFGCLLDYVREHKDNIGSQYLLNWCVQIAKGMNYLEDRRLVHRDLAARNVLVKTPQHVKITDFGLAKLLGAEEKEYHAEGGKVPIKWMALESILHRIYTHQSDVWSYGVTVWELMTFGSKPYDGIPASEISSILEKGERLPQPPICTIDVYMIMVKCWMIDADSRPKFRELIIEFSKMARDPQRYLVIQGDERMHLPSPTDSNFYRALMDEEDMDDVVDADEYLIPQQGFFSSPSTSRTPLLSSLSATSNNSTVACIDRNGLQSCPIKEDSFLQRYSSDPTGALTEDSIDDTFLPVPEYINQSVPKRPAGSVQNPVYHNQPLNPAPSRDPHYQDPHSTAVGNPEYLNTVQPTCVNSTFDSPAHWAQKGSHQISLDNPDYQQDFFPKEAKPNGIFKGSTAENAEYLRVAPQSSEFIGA
Receptor tyrosine-protein kinase erbB-2, sequence (P04626 whole entry): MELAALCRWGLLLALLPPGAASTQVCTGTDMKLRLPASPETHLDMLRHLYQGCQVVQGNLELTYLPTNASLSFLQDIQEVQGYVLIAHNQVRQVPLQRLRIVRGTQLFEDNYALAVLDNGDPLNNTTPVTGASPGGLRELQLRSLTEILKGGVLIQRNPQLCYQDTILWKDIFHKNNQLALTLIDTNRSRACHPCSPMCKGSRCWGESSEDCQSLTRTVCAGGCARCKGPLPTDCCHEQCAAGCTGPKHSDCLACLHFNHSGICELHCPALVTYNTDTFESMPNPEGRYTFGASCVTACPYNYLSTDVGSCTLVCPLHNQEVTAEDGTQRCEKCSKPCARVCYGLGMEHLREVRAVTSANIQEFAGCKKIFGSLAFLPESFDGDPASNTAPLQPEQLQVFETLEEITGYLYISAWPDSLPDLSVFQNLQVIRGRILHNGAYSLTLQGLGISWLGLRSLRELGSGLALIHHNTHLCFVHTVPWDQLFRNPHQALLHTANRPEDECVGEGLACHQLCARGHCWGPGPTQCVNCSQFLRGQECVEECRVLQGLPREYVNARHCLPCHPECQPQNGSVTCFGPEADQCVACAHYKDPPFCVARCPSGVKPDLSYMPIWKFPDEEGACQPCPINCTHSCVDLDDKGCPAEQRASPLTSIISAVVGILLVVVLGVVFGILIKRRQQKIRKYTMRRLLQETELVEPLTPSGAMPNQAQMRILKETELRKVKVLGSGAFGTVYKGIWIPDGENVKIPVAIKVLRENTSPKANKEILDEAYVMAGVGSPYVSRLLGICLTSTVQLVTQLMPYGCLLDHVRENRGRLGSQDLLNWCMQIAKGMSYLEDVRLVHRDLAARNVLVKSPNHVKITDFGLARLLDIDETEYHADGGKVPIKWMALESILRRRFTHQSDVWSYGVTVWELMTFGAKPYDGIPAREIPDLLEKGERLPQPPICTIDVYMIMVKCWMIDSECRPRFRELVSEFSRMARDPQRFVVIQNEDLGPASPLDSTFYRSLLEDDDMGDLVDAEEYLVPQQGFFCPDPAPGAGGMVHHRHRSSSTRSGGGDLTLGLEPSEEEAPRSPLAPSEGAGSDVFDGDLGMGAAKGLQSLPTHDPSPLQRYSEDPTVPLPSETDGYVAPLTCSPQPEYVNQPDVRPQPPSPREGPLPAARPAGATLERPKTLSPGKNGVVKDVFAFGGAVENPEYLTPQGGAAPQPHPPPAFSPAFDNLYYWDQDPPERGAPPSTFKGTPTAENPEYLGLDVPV

IC50 [1] [nM] | IC50 [2] [nM] | IC50 [3] [nM] | IC50 [4] [nM] | Compound
1580 | 5010 |  |  | c1ccc(Cc2nc3ccc(Nc4ncnc5nn6ccccc6c45)cc3[nH]2)cc1
 |  | 126 | 200 | N#Cc1cccc(NC(=O)Nc2ncnc3nn4ccccc4c23)c1
 |  | 158 | 251 | O=C(Nc1cccc(C(F)(F)F)c1)Nc1ncnc2nn3ccccc3c12
> 10000 | > 10000 |  |  | Nc1ncnc2nn3ccccc3c12
 |  | 1000 | 3980 | O=C(Nc1ccc(Br)cc1)Nc1ncnc2nn3ccccc3c12
 |  | 1580 | 3980 | O=C(Nc1ccc(C(F)(F)F)cc1)Nc1ncnc2nn3ccccc3c12
200 | 50 |  |  | Clc1cc(Nc2ncnc3nn4ccccc4c23)ccc1OCc1ccccc1
 |  | > 10000 | 631 | O=C(Nc1ccc(F)cc1)Nc1ncnc2nn3ccccc3c12
 |  | 316 | > 10000 | O=C(Nc1cccc([N+](=O)[O-])c1)Nc1ncnc2nn3ccccc3c12
